Measured values from ChEMBL document CHEMBL2146447, “Synthesis and antimicrobial activity of amido linked pyrrolyl and pyrazolyl-oxazoles, thiazoles and imidazoles” (2011).
Activity calls are given as the source filed them. No cut-off for these calls is given here.

Assays:
Type in all cases: functional
Staphylococcus aureus [1] = experiment: Antibacterial activity against Staphylococcus aureus assessed at 50 ug after 24 hrs by agar well diffusion method; conditions: for zone of inhibition at 50 µg/disc: read-out: DIZ
Staphylococcus aureus [2] = experiment: Antibacterial activity against Staphylococcus aureus at 100 ug after 24 hrs by agar well diffusion method; conditions: for zone of inhibition at 100 µg/disc: read-out: DIZ
Bacillus subtilis [3] = experiment: Antibacterial activity against Bacillus subtilis at 50 ug after 24 hrs by agar well diffusion method; conditions: for zone of inhibition at 50 µg/disc: read-out: DIZ
Bacillus subtilis [4] = experiment: Antibacterial activity against Bacillus subtilis at 100 ug after 24 hrs by agar well diffusion method; conditions: for zone of inhibition at 100 µg/disc: read-out: DIZ
Pseudomonas aeruginosa [5] = experiment: Antibacterial activity against Pseudomonas aeruginosa at 50 ug after 24 hrs by agar well diffusion method; conditions: for zone of inhibition at 50 µg/disc: read-out: DIZ
Pseudomonas aeruginosa [6] = experiment: Antibacterial activity against Pseudomonas aeruginosa at 100 ug after 24 hrs by agar well diffusion method; conditions: for zone of inhibition at 100 µg/disc: read-out: DIZ
Klebsiella pneumoniae [7] = experiment: Antibacterial activity against Klebsiella pneumoniae at 50 ug after 24 hrs by agar well diffusion method; conditions: for zone of inhibition at 50 µg/disc: read-out: DIZ
Klebsiella pneumoniae [8] = experiment: Antibacterial activity against Klebsiella pneumoniae at 100 ug after 24 hrs by agar well diffusion method; conditions: for zone of inhibition at 100 µg/disc: read-out: DIZ
Aspergillus niger [9] = experiment: Antifungal activity against Aspergillus niger at 50 ug after 48 hrs by agar well diffusion method; conditions: for zone of inhibition at 50 µg/disc: read-out: DIZ
Aspergillus niger [10] = experiment: Antifungal activity against Aspergillus niger at 100 ug after 48 hrs by agar well diffusion method; conditions: for zone of inhibition at 100 µg/disc: read-out: DIZ
Penicillium chrysogenum [11] = experiment: Antifungal activity against Penicillium chrysogenum at 50 ug after 48 hrs by agar well diffusion method; conditions: for zone of inhibition at 50 µg/disc: read-out: DIZ
Penicillium chrysogenum [12] = experiment: Antifungal activity against Penicillium chrysogenum at 100 ug after 48 hrs by agar well diffusion method; conditions: for zone of inhibition at 100 µg/disc: read-out: DIZ

| SMILES | zone of inhibition at 50 µg/disc (Staphylococcus aureus [1]) [mm] | zone of inhibition at 100 µg/disc (Staphylococcus aureus [2]) [mm] | zone of inhibition at 50 µg/disc (Bacillus subtilis [3]) [mm] | zone of inhibition at 100 µg/disc (Bacillus subtilis [4]) [mm] | zone of inhibition at 50 µg/disc (Pseudomonas aeruginosa [5]) [mm] | zone of inhibition at 100 µg/disc (Pseudomonas aeruginosa [6]) [mm] | zone of inhibition at 50 µg/disc (Klebsiella pneumoniae [7]) [mm] | zone of inhibition at 100 µg/disc (Klebsiella pneumoniae [8]) [mm] | zone of inhibition at 50 µg/disc (Aspergillus niger [9]) [mm] | zone of inhibition at 100 µg/disc (Aspergillus niger [10]) [mm] | zone of inhibition at 50 µg/disc (Penicillium chrysogenum [11]) [mm] | zone of inhibition at 100 µg/disc (Penicillium chrysogenum [12]) [mm] | diameter of the inhibition zone (DIZ) (Pseudomonas aeruginosa [5]) | diameter of the inhibition zone (DIZ) (Pseudomonas aeruginosa [6]) | diameter of the inhibition zone (DIZ) (Klebsiella pneumoniae [7]) | diameter of the inhibition zone (DIZ) (Klebsiella pneumoniae [8]) | diameter of the inhibition zone (DIZ) (Aspergillus niger [9]) | diameter of the inhibition zone (DIZ) (Aspergillus niger [10]) | diameter of the inhibition zone (DIZ) (Penicillium chrysogenum [11]) | diameter of the inhibition zone (DIZ) (Penicillium chrysogenum [12]) | further results |
| --- | --- | --- | --- | --- | --- | --- | --- | --- | --- | --- | --- | --- | --- | --- | --- | --- | --- | --- | --- | --- | --- |
| Cc1ccc(-c2csc(NC(=O)c3n[nH]cc3-c3ccccc3)n2)cc1 | 9 | 11 | 10 | 13 | 8 | 11 | 13 | 15 | 8 | 11 | 10 | 13 |  |  |  |  |  |  |  |  |  |
| Cc1ccc(-c2coc(NC(=O)/C=C/c3ccccc3)n2)cc1 |  |  |  |  |  |  |  |  |  |  |  |  | inactive | inactive | inactive | inactive | inactive | inactive | inactive | inactive | diameter of the inhibition zone (DIZ) (Staphylococcus aureus [1]): inactive; diameter of the inhibition zone (DIZ) (Staphylococcus aureus [2]): inactive; diameter of the inhibition zone (DIZ) (Bacillus subtilis [3]): inactive; diameter of the inhibition zone (DIZ) (Bacillus subtilis [4]): inactive |
| O=C(Nc1nc(-c2ccc(Cl)cc2)co1)c1n[nH]cc1-c1ccccc1 | 20 | 23 | 21 | 22 | 19 | 21 | 23 | 24 | 24 | 27 | 26 | 29 |  |  |  |  |  |  |  |  |  |
| O=C(Nc1nc(-c2ccccc2)cs1)C1=NNCC1c1ccccc1 (stereo unspecified) | 13 | 15 | 14 | 16 |  |  |  |  |  |  |  |  | inactive | inactive | inactive | inactive | inactive | inactive | inactive | inactive |  |
| O=C(/C=C/c1ccccc1)Nc1nc(-c2ccc(Cl)cc2)co1 | 22 | 25 | 20 | 24 | 21 | 22 | 24 | 27 | 25 | 28 | 27 | 30 |  |  |  |  |  |  |  |  |  |
| O=C(Nc1nc(-c2ccccc2)co1)c1c[nH]cc1-c1ccccc1 | 12 | 14 | 13 | 15 |  |  |  |  |  |  |  |  | inactive | inactive | inactive | inactive | inactive | inactive | inactive | inactive |  |
| Cc1ccc(-c2coc(NC(=O)C3=NNCC3c3ccccc3)n2)cc1 (stereo unspecified) |  |  |  |  |  |  |  |  |  |  |  |  | inactive | inactive | inactive | inactive | inactive | inactive | inactive | inactive | diameter of the inhibition zone (DIZ) (Staphylococcus aureus [1]): inactive; diameter of the inhibition zone (DIZ) (Staphylococcus aureus [2]): inactive; diameter of the inhibition zone (DIZ) (Bacillus subtilis [3]): inactive; diameter of the inhibition zone (DIZ) (Bacillus subtilis [4]): inactive |
| Cc1ccc(-c2csc(NC(=O)c3c[nH]cc3-c3ccccc3)n2)cc1 | 16 | 18 | 19 | 21 | 13 | 15 | 21 | 23 | 18 | 19 | 18 | 21 |  |  |  |  |  |  |  |  |  |
| Cc1ccc(-c2coc(NC(=O)c3c[nH]cc3-c3ccccc3)n2)cc1 |  |  |  |  |  |  |  |  |  |  |  |  | inactive | inactive | inactive | inactive | inactive | inactive | inactive | inactive | diameter of the inhibition zone (DIZ) (Staphylococcus aureus [1]): inactive; diameter of the inhibition zone (DIZ) (Staphylococcus aureus [2]): inactive; diameter of the inhibition zone (DIZ) (Bacillus subtilis [3]): inactive; diameter of the inhibition zone (DIZ) (Bacillus subtilis [4]): inactive |
| O=C(Nc1nc(-c2ccc(Cl)cc2)cs1)c1c[nH]cc1-c1ccccc1 | 26 | 27 | 27 | 29 | 23 | 25 | 29 | 30 | 29 | 31 | 30 | 33 |  |  |  |  |  |  |  |  |  |
| Cc1ccc(-c2c[nH]c(NC(=O)c3n[nH]cc3-c3ccccc3)n2)cc1 | 8 | 9 | 9 | 12 | 9 | 10 | 11 | 13 | 8 | 9 | 8 | 11 |  |  |  |  |  |  |  |  |  |
| O=C(Nc1nc(-c2ccc(Cl)cc2)co1)C1=NNCC1c1ccccc1 (stereo unspecified) | 17 | 18 | 17 | 20 | 17 | 19 | 22 | 24 | 23 | 25 | 24 | 27 |  |  |  |  |  |  |  |  |  |
| Cc1ccc(-c2c[nH]c(NC(=O)/C=C/c3ccccc3)n2)cc1 | 18 | 20 | 21 | 23 | 14 | 16 | 23 | 25 | 18 | 21 | 20 | 23 |  |  |  |  |  |  |  |  |  |
